In patent US5686065A, “Topical siloxane sunscreen compositions having enhanced performance and safety” (Special Advanced Biomaterials, Inc., priority 1991, dated 1997):
Read-outs that look alike come from different tables or passages of the source.

What was measured:
[1] = design: species or system greentree python snake
Experimental: Ten microliters (a), (b), (c), (d), AT or ethanol/cyclomethicone vehicle was applied separately to a 7 cm^2 patch of greentree python snake skin once daily for 3 days or to a 7 cm^2 patch of shaved rabbit skin. At the end of the application period, the patches were washed five times each day for three days with 20 μl of 50/50 ethanol/water using a 3 cm diameter cylinder to enable collection of the washings. The amount of skin protectant washed off was quantitated using reverse phase HPLC, C^14 radiocounting or AT/FTIR. The percentage remaining bound after 5, 10, and 15 washes was designated as 100×(amount applied-amount washed off)/(amount applied) and was averaged for the 5 samples.

[2] = tested on: normal skin bacteria (results for S. aureus reported); assay: Quantitation of microbial growth on human skin (expanded flora); type: in vivo
Experimental: The third test involved growing normal skin bacteria by covering the skin with an occlusive dressing such as Saran Wrap (this is referred to as expanding the flora). Prior to expanding the flora, the skin test sites were treated with the test or control solutions as described above. The flora was then expanded for 24 hours, followed by quantitating the bacteria growth. This was done by washing an area of skin with liquid growth medium and spreading the washing on an agar plate. After the bacteria grew the number colonies were counted (Table 8).
(§1) Each result was averaged for samples.

S. aureus [3] = assay: Quantitation of microbial growth in solution mixing with treated snake skin patch; type: cell-based; settings: for Microbe Growth/Solution after 5 washes / Microbe Growth/Solution after 10 washes / Microbe Growth/Solution after 15 washes: S. aureus, treated snake skin, 24 hours
Experimental: In the second test, tubes containing liquid growth medium were inoculated with bacteria, and then the test disk was placed in the tube. The bacteria was allowed to grow for 24 hours and then the number of bacteria per ml was quantified either by light reflectance or by removing a small volume and streaking on an agar plate. The latter method was followed by allowing the bacteria to grow and then counting the colonies (Table 7).
as §1

S. aureus [4] = assay: Zone of inhibition on agar of treated snake skin patches; type: cell-based; settings: 24 hours
Experimental: The patches of snake skin were assayed for antimicrobial activity using 3 methods: (1) zone of antimicrobial activity on agar due to diffusion, (2) quantitation of microbial growth in solution mixing with patch, and (3) quantitation of microbial growth on human skin. The first method was a standard zone of inhibition study in which the bacteria was streaked onto an agar plate, the disk containing the test material was placed on the plate, and then the bacteria were allowed to grow for 24 hours.
as §1

microbes on skin = settings: general statement, no test given; cited from earlier work
[5] = Humectant remaining bound to snake skin after washing; design: species or system greentree python snake
Experimental: In the case of (b), 10 μl of ETS was also applied immediately after solution (b).

[6] = by infants; general statement; cited from earlier work
[7] = Modified Draise test: erythema by salicylic acid on treated rabbit skin; type: in vivo; settings: in words, from Table 10
Experimental: The skin test on rabbits was essentially a modified Draise test for skin in which unabraded skin was studied on partially occluded sites. The skin irritation study was started following skin treatment by one of the test compounds above. In this test, after the compound was applied to the skin, a known skin irritant, 10 μl of 5% salicylic acid in a 50/50 by volume mixture of ethanol/water, was applied once a day for 3 days. The skin was rated for erythema using the scale of 0--no erythema to 4--severe erythema.

[8] = Experimental: Ten microliters of each of (a), (b), (c), (d), 2-ethyl-1,3-hexanediol (EHD), N,N-diethyl-m-toluamide (DT), or N,N-diethoxy-m-toluamide (DOT) were applied to separate 7 cm^2 patches of greentree python snake skin once daily for 3 days. At the end of the application period, the patches were washed five times each day for three days with 20 μl of 50/50 ethanol/water using a 3 cm diameter cylinder to enable collection of the washings. The amount of insect repellent washed off was quantified using reverse phase HPLC, C^14 radiocounting or AT/FTIR. The percentage remaining bound after 5, 10, and 15 washes was designated as 100×(amount applied-amount washed off)/(amount applied) and was averaged for 5 samples.
[9] = human skin, flora expanded 24 hours, S. aureus
[10] = snake skin, insect repellent, 50/50 ethanol/water washes

allantion-mono(triethoxy)siloxy ester [Example 6 (d)]
% bound after 5 washes [1]: 47% | % bound after 10 washes [1]: 36% | % bound after 15 washes [1]: 21%

CCO[Si](CCCN)(OCC)OCC [aminofunctional silane coupling agent, Aminopropyltriethoxysilane]
antibacterial activity on human skin ([2]; in words, from Table 8): inhibitory activity on bacterial growth on human skin | microbial inhibitory activity on the skin ([2]; in words, no data at the place): substantial microbial inhibitory activity on the skin | microbiocidal activity (S. aureus [3]; in words, from Table 7): not bactericidal

O=C(O)CC(O)C(=O)O (centres unmarked) [MA, Malic acid]
Microbe Growth/on Skin after 5 washes [2, 9]: 10^5 CFU | Microbe Growth/on Skin after 15 washes [2, 9]: 10^5 CFU | Zone of Inhibition after 5 washes (S. aureus [4]): 15 mm | Zone of Inhibition after 10 washes (S. aureus [4]): 0 mm | Zone of Inhibition after 15 washes (S. aureus [4]): 0 mm | Microbe Growth/Solution after 5 washes (S. aureus [3]): 0 CFU | Microbe Growth/Solution after 10 washes (S. aureus [3]): 10^2 CFU | Microbe Growth/Solution after 15 washes (S. aureus [3]): 10^3 CFU

Oc1cc(Cl)ccc1Oc1ccc(Cl)cc1Cl [triclosan, Triclosan]
antimicrobial effectiveness on skin (microbes on skin): relatively ineffective

OCC(O)CO [GL, Glycerol]
% bound after 5 washes [5]: 1% | % bound after 10 washes [5]: 0% | % bound after 15 washes [5]: 0%

Oc1c(Cl)cc(Cl)c(Cl)c1Cc1c(O)c(Cl)cc(Cl)c1Cl [HCP, Hexachlorophene]
absorption [6]: rapidly absorbed by infants | toxicity / side effects of topical antimicrobial (microbes on skin): highly toxic | Microbe Growth/on Skin after 0 washes [2, 9]: 0 CFU | Microbe Growth/on Skin after 5 washes [2, 9]: 10^2 CFU | Microbe Growth/on Skin after 15 washes [2, 9]: 10^5 CFU | Zone of Inhibition after 5 washes (S. aureus [4]): 18 mm | Zone of Inhibition after 10 washes (S. aureus [4]): 0 mm | Zone of Inhibition after 15 washes (S. aureus [4]): 0 mm | Microbe Growth/Solution after 5 washes (S. aureus [3]): 0 CFU | Microbe Growth/Solution after 15 washes (S. aureus [3]): 10^3 CFU

O=C(Nc1ccc(Cl)cc1)Nc1ccc(Cl)c(Cl)c1 [trichlorocarban]
antimicrobial effectiveness on skin (microbes on skin): relatively ineffective

[H]/N=C(\N/C(=N/[H])NCCCCCCNC(=N)NC(=N)Nc1ccc(Cl)cc1)Nc1ccc(Cl)cc1 [Chlorhexidene, Chlorhexidine]
antimicrobial effectiveness on skin (microbes on skin): very effective | toxicity / side effects of topical antimicrobial (microbes on skin): causes severe skin drying

NC(=O)NC1NC(=O)NC1=O (centres unmarked) [allantoin, Allantoin]
protection from skin erythema by salicylic acid [7]: does provide some protection from skin erythema by salicylic acid, this protection is lost if the skin is washed | adherence to / retention on skin [1]: enhanced when applied with a polymerizing siloxane

[O-][n+]1ccccc1S [PYR, Pyrithione]
Microbe Growth/on Skin after 5 washes [2, 9]: 10^4 CFU | Microbe Growth/on Skin after 15 washes [2, 9]: 10^5 CFU | Zone of Inhibition after 5 washes (S. aureus [4]): 10 mm | Zone of Inhibition after 10 washes (S. aureus [4]): 0 mm | Zone of Inhibition after 15 washes (S. aureus [4]): 0 mm | Microbe Growth/Solution after 5 washes (S. aureus [3]): 0 CFU | Microbe Growth/Solution after 10 washes (S. aureus [3]): 10^2 CFU | Microbe Growth/Solution after 15 washes (S. aureus [3]): 10^3 CFU

CCCC(O)C(CC)CO (centres unmarked) [EHD, 2-ethyl-1,3-hexanediol]
% bound after 5 washes [8]: 7% | % bound after 10 washes [8]: 2% | % bound after 15 washes [8]: 2%

CCON(OCC)C(=O)c1cccc(C)c1 [DOT, N,N-diethoxy-m-toluamide]
% bound after 5 washes [8]: 6% | % bound after 10 washes [8]: 1% | % bound after 15 washes [8]: 1%

CCN(CC)C(=O)c1cccc(C)c1 [DT, N,N-diethyl-m-toluamide]
% bound after 5 washes [8, 10]: 10% | % bound after 10 washes [8, 10]: 5% | % bound after 15 washes [8, 10]: 2%

Hyaluronic acid [HA]
% bound after 5 washes [5]: 5% | % bound after 10 washes [5]: 1% | % bound after 15 washes [5]: 0%
